“And” between values parts separate entries of the source, which are not always exact repeats. Equal entries are not always repeated.
Tests used:
patient [1] = assay: Periorbital application in a patient with bacterial conjunctivitis (patient example); assay type: in vivo, human; conditions: Example VIII: 0.3% w/w cream (Composition 3, Table II), periorbital skin of the right eye daily
Excerpt: A pediatric patient suffers from bacterial conjunctivitis in their right eye.

Cynomolgus monkeys [2] = assay: Intraocular pressure after periorbital roller-ball application in Cynomolgus monkeys; assay type: in vivo, Cynomolgus monkey; design: Ocular Pressure (Left Eye), Mean: unit not given beside the values; conditions: for Ocular Pressure (Left Eye), Mean: treated left eye, n=6
Protocol: Day 1; 8 Cynomolgus monkeys, which are the favored animal model for glaucoma studies, were assigned to the study. Intraocular pressure was measured in both eyes. The 6 animals with the highest intraocular pressure were selected for study.
(§1) Day 2 Intraocular pressure was measured in both eyes of the 6 selected animals. Before dosing the monkeys, the delivery of vehicle (Polyethylene glycol 400) and the compound (3-[(3′-fluoro-4-fluorobiphenyl-3-carbonyl) amino] phenoxyacetic acid isopropyl ester from the roller-ball applicator bottle was checked by rolling it along a solid surface (e.g. glass or plastic) until the liquid flowed freely from the roller-ball. The formulation of (3-[(3′-fluoro-4-fluorobiphenyl-3-carbonyl) amino] phenoxyacetic acid isopropyl ester was applied immediately afterwards by rolling the roller-ball slowly around the skin surrounding the left eye socket of each monkey. The roller-ball was rolled around this area 5 times for each monkey. The same drug application procedure was performed for the vehicle (Polyethylene glycol 400) to the right eye socket of each monkey. Intraocular pressure was measured in both eyes at 3 hours post-drug and vehicle application and again at 5 hours post-drug and vehicle application. The conjunctivae of both eyes were checked for redness at the end of the daily experimental period.
Day 3; Repeat the operation of Day 2.
Day 4; Repeat the operation of Day 2.
Day 5; Repeat the operation of Day 2.
Days 6 and 7, no drug administered.
(§2) Day 8; Intraocular pressure was measured in both eyes and the conjunctivae were checked for redness/hyperemia.
(§3) Day 15; Intraocular pressure in was measured in both eyes and the conjunctivae were checked for redness/hyperemia.
This is very unusual as most IOP lowering drugs are administered daily in order to continuously lower IOP.

Cynomolgus monkeys [3] = assay: Ocular surface hyperemia assessment (conjunctival congestion) in Cynomolgus monkeys; assay type: in vivo, Cynomolgus monkey; design: key to Conjunctival Congestion, hyperemia score: 0: Normal Appearance; 0.5: Very Slight Redness or Dilation of Conjunctival Vessels; 1: More Obvious Redness or Dilation of Conjunctival Vessels; 2: Whole Conjunctiva Exhibiting Pronounced Red Coloration. Visual Clarification of Individual Conjunctival Vessels Difficult.; 3: Whole Conjunctiva Exhibiting Pronounced Red Coloration. Visual Clarification of Individual Iridial Vessels Impossible. Accompany Conjunctival Edema; conditions: for Conjunctival Congestion, hyperemia score: left eyes, one value per animal
Protocol: as §1, §2, §3

patient [4] = assay: Periorbital application for ocular pain/inflammation after cataract surgery (patient example); assay type: in vivo, human; conditions: Example IX: 0.1% w/v solution (formula 5, table 1) once a day for five days, periorbital skin of both eyes
Excerpt: A person is suffering from ocular/pain inflammation after cataract surgery.

O=C(O)c1cn(C2CC2)c2cc(N3CCNCC3)c(F)cc2c1=O [ciprofloxacin]
bacterial conjunctivitis (patient [1]): bacterial infection disappears

CC(C)OC(=O)COc1cccc(NC(=O)c2cc(-c3cccc(F)c3)ccc2F)c1 [3-[(3′-fluoro-4-fluorobiphenyl-3-carbonyl)amino] phenoxyacetic acid isopropyl ester]
reductions in intraocular pressure (Table III and FIG. 2) (Cynomolgus monkeys [2]; Cynomolgus monkeys, periorbital application, versus normal baseline): Statistically significant reductions
Ocular Pressure (Left Eye), Mean (Cynomolgus monkeys [2]; Day 2-3 hr post, in Polyethylene glycol 400, dosed Days 2-5, baseline Day 1 17.8 / 18.3): 18.0
Ocular Pressure (Left Eye), Mean (Cynomolgus monkeys [2]; Day 2-5 hr post, baseline Day 1 17.8 / 18.3): 17.8
Ocular Pressure (Left Eye), Mean (Cynomolgus monkeys [2]; Day 3-3 hr post): 12.2
Ocular Pressure (Left Eye), Mean (Cynomolgus monkeys [2]; Day 3-5 hr post): 12.3
Ocular Pressure (Left Eye), Mean (Cynomolgus monkeys [2]; Day 4-3 hr post): 10.9
Ocular Pressure (Left Eye), Mean (Cynomolgus monkeys [2]; Day 4-5 hr post): 10.6
Ocular Pressure (Left Eye), Mean (Cynomolgus monkeys [2]; Day 5-3 hr post): 8.4
Ocular Pressure (Left Eye), Mean (Cynomolgus monkeys [2]; Day 5-5 hr post): 9.1
Ocular Pressure (Left Eye), Mean (Cynomolgus monkeys [2]; Day 8-8:00am, no drug after Day 5): 8.5
Ocular Pressure (Left Eye), Mean (Cynomolgus monkeys [2]; Day 15-8:00, no drug after Day 5): 17.4
IOP lowering (FIG. 2) (Cynomolgus monkeys [2]; after five doses): long term IOP lowering
duration of IOP lowering (Cynomolgus monkeys [2]; periorbital skin, single administration and/or after a series of single administrations): 7 to 14 days
Conjunctival Congestion, hyperemia score (Cynomolgus monkeys [3]; 150407 (12:00) (Day 2, 3 hr post)): 0
Conjunctival Congestion, hyperemia score (Cynomolgus monkeys [3]; 150407 (14:00) (Day 2, 5 hr post)): 0
Conjunctival Congestion, hyperemia score (Cynomolgus monkeys [3]; 150408 (12:00) (Day 3, 3 hr post)): 0
Conjunctival Congestion, hyperemia score (Cynomolgus monkeys [3]; 150408 (14:00) (Day 3, 5 hr post)): 0
Conjunctival Congestion, hyperemia score (Cynomolgus monkeys [3]; 150409 (12:00) (Day 4, 3 hr post)): 0
Conjunctival Congestion, hyperemia score (Cynomolgus monkeys [3]; 150409 (14:00) (Day 4, 5 hr post)): 0
Conjunctival Congestion, hyperemia score (Cynomolgus monkeys [3]; 150410 (12:00) (Day 5, 3 hr post)): 0
Conjunctival Congestion, hyperemia score (Cynomolgus monkeys [3]; 150410 (14:00) (Day 5, 5 hr post)): 0
Conjunctival Congestion, hyperemia score (Cynomolgus monkeys [3]; 150413 (8:00) (Day 8)): 0.6 and 0 (4×) and 0.5
Conjunctival Congestion, hyperemia score (Cynomolgus monkeys [3]; 150420 (8:00) (Day 15)): 0
surface hyperemia (summary of Table IV) (Cynomolgus monkeys [3]; Cynomolgus monkeys, exception: very slight redness on Day 7 in two monkeys): almost no surface hyperemia

C[C@]12C=CC(=O)C=C1CC[C@@H]1[C@@H]2[C@@H](O)C[C@@]2(C)[C@H]1CC[C@]2(O)C(=O)CO [prednisolone]
ocular pain and inflammation after cataract surgery (patient [4]): reduces the pain and inflammation

Source: patent US9820954B2, “Quantitative peri-orbital application of ophthalmology drugs” (JENIVISION INC., priority 2015, dated 2017)
